In one experiment the target is T1, KRAS G12S (Homo sapiens, UniProt P01116, G12S).
T1 construct: made in house; host or cells: E. coli, e.g. BL21 (DE3)
The experiment can be described thus: HTRF assay, KRAS G12S interaction with SOS1. The experiment is classed as biochemical. The following applies: bins <500 nM / 500 nM to 1000 nM, read-out: Inhibition of KRAS G12S (IC50). From the text: (§1) This assay can be also used to assess a selective inhibition or reduction of signaling output of a mutant Ras protein relative to a wildtype, or relative to a different mutant Ras protein. For example, the equilibrium interaction of wildtype KRAS or K-Ras mutant (e.g., wildtype or a mutant thereof) with SOS1 (e.g., hSOS1) can be assessed as a proxy or an indication for the ability of a subject compound to bind and inhibit Ras protein. The HTRF assay detects from (i) a fluorescence resonance energy transfer (FRET) donor (e.g., antiGST-Europium) that is bound to GST-tagged K-Ras mutant to (ii) a FRET acceptor (e.g., anti-6His-XL665) bound to a His-tagged hSOSL1.
(§2) The assay buffer can contain ~5 mM HEPES pH 7.4, ~150 mM NaCl, ~1 mM DTT, 0.05% BSA and 0.0025% (v/v) Igepal. A Ras working solution is prepared in an assay buffer containing typically a suitable amount of the protein construct (e.g., GST-tagged K-Ras mutant) and the FRET donor (e.g., antiGST-Eu(K) from Cisbio, France). A SOS1 working solution is prepared in an assay buffer containing suitable amount of the protein construct (e.g., His-hSOS1) and the FRET acceptor (e.g., anti-6His-XL665 from Cisbio, France). A suitable amount of the protein construct will depend on the range of activity or range of IC50 values being detected or under investigation. For detecting an IC50 within a range of 500 nM, the protein constructs of the same range of molarity can be utilized.
(§3) A fixed volume of DMSO with or without test compound is transferred into a 384-well plate. Ras working solution is added to all wells of the test plate. SOS1 working solution is added to all wells except for those that are subsequently filled with inhibitor control solution. Upon incubation for about 10 minutes or longer, the fluorescence is measured with a M1000Pro plate reader (Tecan) using HTRF detection (excitation 337 nm, emission 1: 620 nm, emission 2: 665 nm). Compounds are tested in duplicate at different concentrations (for example, 10 μM, 2.5 μM, 0.63 μM, 0.16 μM, 0.04 μM, 0.01 μM test compound). The ratiometric data (i.e., emission 2 divided by emission 1) is used to calculate IC50 values against Ras using GraphPad Prism (GraphPad software). Signaling output measured in terms of IC50 values can be obtained and a ratio of IC50 against one mutant relative to another mutant can be calculated. For instance, a selective reduction of K-Ras G12S signaling output can be evidenced by a ratio greater than one. In particular, a selective reduction of K-Ras G12S signaling relative to K-Ras WT signaling is evidenced if the ratio of IC50 (against K-Ras WT) to IC50 (against K-Ras G12S) is greater than 1.

The next experiment deals with MiaPaca2 cells. The experiment can be described thus: Ras cellular assay, growth of cells with K-Ras G12C mutation. The experiment is classed as cell-based. The following applies: Homo sapiens, MIA PaCa-2; cell proliferation assay; bins ≤500 nM / >500 nM; read-out: Inhibition of MiaPaca2 Cells (IC50). The method, then: For example, this assay can be also used to assess selective growth inhibition of a mutant Ras protein relative to a wildtype or different mutant Ras protein.
MIA PaCa-2 (ATCC CRL-1420) and NCI-H1792 (ATCC CRL-5895) cell lines comprise a G12C mutation and can be used to assess Ras cellular signaling in vitro, e.g., in response to an inhibitor compound of the present disclosure. […] MIA PaCa-2 culture medium is prepared with DMEM/Ham's F12 (e.g., with stable glutamine, 10% FCS, and 2.5% horse serum. NCI-H1792 culture medium is prepared with RPMI 1640 (e.g., with stable glutamine) and 10% FCS.
On a first day (e.g., Day 1), Softagar (Select Agar, Invitrogen, 3% in ddH2O autoclaved) is boiled and tempered at 48° C. Appropriate culture medium (i.e., medium) is tempered to 37° C. Agar (3%) is diluted 1:5 in medium (=0.6%) and plated into 96 well plates (Corning, #3904), then incubated at room temperature for agar solidification. A 3% agar is diluted to 0.25% in medium (1:12 dilution) and tempered at 42° C. Cells are trypsinized, counted, and tempered at 37° C. The cells (e.g., MIA PaCa-2 at about 125-150 cells, NCI-H1792 at about 1000 cells) are resuspended in […] 0.25% Agar and plated, followed by incubation at room temperature for agar solidification. The wells are overlaid with […] of the medium. Sister wells in a separate plate are plated for time zero determination. All plates are incubated overnight at 37° C. and 5% CO2.
On a second day (e.g., Day 2), time zero values are measured. A […] volume of Cell Titer 96 Aqueous Solution (Promega) is added to each well and incubated in the dark at 37° C. and 5% CO2. Absorption can be measured at 490 nm and reference wavelength 660 nm. DMSO-prediluted test compounds are added to wells of interest, e.g., with HP Dispenser, to one or more desired concentrations (e.g., a final DMSO concentration of 0.3%).
On a tenth day (e.g., Day 10), absorption by wells treated with the test compounds and control wells are measured with, for example, Cell Titer 96 AQueous and analyzed in comparison to the time zero measurements. The IC50 values are determined using the four parameter fit. The resulting IC50 value is a measurement of the ability of the test compound to reduce cell growth of Ras-driven cells (e.g., tumor cell lines) in vitro and/or in vivo.

Another experiment has as its target T2, KRAS WT (Homo sapiens, UniProt P01116).
T2 construct: made in house; host or cells: E. coli, e.g. BL21 (DE3)
The experiment can be described thus: HTRF assay, wildtype KRAS interaction with SOS1. The experiment is classed as biochemical. The following applies: bins <500 nM / 500 nM to 1000 nM, read-out: Inhibition of KRAS WT (IC50).
Excerpt: as §1, §2, §3
(In general: In TR-FRET formats the signal depends on donor and acceptor labels being close together.)

Another experiment has as its target T3, KRAS G12V (Homo sapiens, UniProt P01116, G12V).
T3 construct: made in house; host or cells: E. coli, e.g. BL21 (DE3)
The experiment can be described thus: HTRF assay, KRAS G12V interaction with SOS1. Type of experiment: biochemical. The following applies: bins <500 nM / 500 nM to 1000 nM, read-out: Inhibition of KRAS G12V (IC50).
Excerpt: as §1, §2, §3

The target in another experiment is T4, KRAS G12D (Homo sapiens, UniProt P01116, G12D).
T4 construct: made in house; host or cells: E. coli, e.g. BL21 (DE3)
The experiment can be described thus: HTRF assay, KRAS G12D interaction with SOS1. The following applies: bins <500 nM / 500 nM to 1000 nM, read-out: Inhibition of KRAS G12D (IC50). Type of experiment: biochemical.
Excerpt: as §1, §2, §3

Each structure is given as a SMILES string. pIC50: −log10 of the molar value. Where only a bound is given, the exact number is not on record here.

For orientation: pIC50 means −log10 of the IC50, conventionally taken in molar units.

T3 sequence (P01116 1-188 isoform P01116-2 G12V): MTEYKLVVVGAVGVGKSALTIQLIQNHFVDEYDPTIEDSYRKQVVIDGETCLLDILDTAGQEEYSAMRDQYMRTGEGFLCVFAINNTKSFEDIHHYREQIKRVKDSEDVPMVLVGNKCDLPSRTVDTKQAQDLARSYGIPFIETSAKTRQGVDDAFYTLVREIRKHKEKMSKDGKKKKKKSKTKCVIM
T1 sequence (P01116 1-188 isoform P01116-2 G12S): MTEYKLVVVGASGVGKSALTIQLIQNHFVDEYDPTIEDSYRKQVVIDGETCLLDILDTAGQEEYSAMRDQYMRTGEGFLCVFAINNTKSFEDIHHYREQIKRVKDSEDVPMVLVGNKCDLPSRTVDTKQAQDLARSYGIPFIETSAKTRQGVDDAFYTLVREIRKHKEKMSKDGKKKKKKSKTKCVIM
T2 sequence (P01116 1-188 isoform P01116-2): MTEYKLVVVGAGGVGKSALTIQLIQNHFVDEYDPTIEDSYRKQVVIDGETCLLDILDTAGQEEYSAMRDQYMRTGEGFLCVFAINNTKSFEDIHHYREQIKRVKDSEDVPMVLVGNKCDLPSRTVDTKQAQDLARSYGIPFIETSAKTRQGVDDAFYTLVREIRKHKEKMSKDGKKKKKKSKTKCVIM
T4 sequence (P01116 1-188 isoform P01116-2 G12D): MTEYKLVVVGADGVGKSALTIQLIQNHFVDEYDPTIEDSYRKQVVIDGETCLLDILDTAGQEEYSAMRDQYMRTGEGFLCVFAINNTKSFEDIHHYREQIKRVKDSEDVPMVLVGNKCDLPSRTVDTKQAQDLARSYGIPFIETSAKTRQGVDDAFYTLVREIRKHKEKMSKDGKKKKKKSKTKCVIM

As for `CCN(c1nc(OC[C@@]23CCCN2C[C@H](F)C3)nc2c(F)c(-c3ccc(F)c4sc(N)c(C#N)c34)c(C(F)(F)F)cc12)[C@@H]1CCN(C(=O)n2cnc(F)n2)[C@@H]1C` (atropisomer, axis not shown; (aS)) [Compound 125, 2-amino-4-((S)-4-(ethyl((2R,3R)-1-(3-fluoro-1H-1,2,4-triazole-1-carbonyl)-2-methylpyrrolidin-3-yl)amino)-8-fluoro-2-(((2R,7aS)-2-fluorotetrahydro-1H-pyrrolizin-7a(5H)-yl)methoxy)-6-(trifluoromethyl)quinazolin-7-yl)-7-fluorobenzo[b]thiophene-3-carbonitrile], the pIC50 was above 6.30 on KRAS G12S; at least 6.30 in the experiment with MiaPaca2 cells; above 6.30 at KRAS WT; above 6.30 on KRAS G12V; above 6.30 at KRAS G12D.
`CCN(c1nc(OC[C@@]23CCCN2C[C@H](F)C3)nc2c(F)c(-c3ccc(F)c4sc(N)c(C#N)c34)c(C(F)(F)F)cc12)[C@@H]1CCN(C(=O)n2ccc(Cl)n2)[C@@H]1C` (atropisomer, axis not shown; (aS)) [Compound 193, (S)-2-amino-4-(4-(((2R,3R)-1-(3-chloro-1H-pyrazole-1-carbonyl)-2-methylpyrrolidin-3-yl)(ethyl)amino)-8-fluoro-2-(((2R,7aS)-2-fluorotetrahydro-1H-pyrrolizin-7a(5H)-yl)methoxy)-6-(trifluoromethyl)quinazolin-7-yl)-7-fluorobenzo[b]thiophene-3-carbonitrile]: the pIC50 at KRAS G12S was above 6.30; in the experiment with MiaPaca2 cells, at least 6.30; at KRAS WT it was above 6.30; on KRAS G12V, above 6.30; at KRAS G12D, above 6.30.
Regarding `CN(c1nc(OC[C@@]23CCCN2C[C@H](F)C3)nc2c(F)c(-c3ccc(F)c4sc(N)c(C#N)c34)c(Cl)cc12)C1CN(C(=O)n2ccnc2)CC1F` (mixture of isomers) [Compound 214, 2-amino-4-(6-chloro-8-fluoro-4-((4-fluoro-1-(1H-imidazole-1-carbonyl)pyrrolidin-3-yl)(methyl)amino)-2-(((2R,7aS)-2-fluorotetrahydro-1H-pyrrolizin-7a(5H)-yl)methoxy)quinazolin-7-yl)-7-fluorobenzo[b]thiophene-3-carbonitrile], the negative-log IC50 (pIC50) on KRAS G12S is above 6.30; in the experiment on MiaPaca2 cells, at least 6.30; at KRAS WT it was above 6.30; on KRAS G12V, above 6.30; at KRAS G12D, above 6.30.
Take `C[C@@H]1[C@H](N(C)c2nc(OC[C@@]34CCCN3C[C@H](F)C4)nc3c(F)c(-c4ccc(F)c5sc(N)c(C#N)c45)c(Cl)cc23)CCN1C(=O)n1ccc(F)n1` [Compound 101, 2-amino-4-(6-chloro-8-fluoro-4-(((2R,3R)-1-(3-fluoro-1H-pyrazole-1-carbonyl)-2-methylpyrrolidin-3-yl)(methyl)amino)-2-(((2R,7aS)-2-fluorotetrahydro-1H-pyrrolizin-7a(5H)-yl)methoxy)quinazolin-7-yl)-7-fluorobenzo[b]thiophene-3-carbonitrile]: the pIC50 is above 6.30 at KRAS G12S; at least 6.30 in the experiment on MiaPaca2 cells; above 6.30 at KRAS WT; above 6.30 at KRAS G12V; above 6.30 at KRAS G12D.
In the case of `CCN(c1nc(OC[C@@]23CCCN2C[C@H](F)C3)nc2c(F)c(-c3ccc(F)c4sc(N)c(C#N)c34)c(Cl)cc12)[C@@H]1CCN(C(=O)n2cc(C#N)nc2C)[C@@H]1C` [Compound 102, 1-((2R,3R)-3-((7-(2-amino-3-cyano-7-fluorobenzo[b]thiophen-4-yl)-6-chloro-8-fluoro-2-(((2R,7aS)-2-fluorotetrahydro-1H-pyrrolizin-7a(5H)-yl)methoxy)quinazolin-4-yl)(ethyl)amino)-2-methylpyrrolidine-1-carbonyl)-2-methyl-1H-imidazole-4-carbonitrile], the negative-log IC50 (pIC50) on KRAS G12S was above 6.30; in the experiment on MiaPaca2 cells it was at least 6.30; at KRAS WT it was above 6.30; on KRAS G12V it was above 6.30; on KRAS G12D, above 6.30.
With `CCN(c1nc(OC[C@@]23CCCN2C[C@H](F)C3)nc2c(F)c(-c3ccc(F)c4sc(N)c(C#N)c34)c(Cl)cc12)[C@@H]1CCN(C(=O)n2cc(C)nc2C#N)[C@@H]1C` [Compound 104, 1-((2R,3R)-3-((7-(2-amino-3-cyano-7-fluorobenzo[b]thiophen-4-yl)-6-chloro-8-fluoro-2-(((2R,7aS)-2-fluorotetrahydro-1H-pyrrolizin-7a(5H)-yl)methoxy)quinazolin-4-yl)(ethyl)amino)-2-methylpyrrolidine-1-carbonyl)-4-methyl-1H-imidazole-2-carbonitrile], the negative-log IC50 (pIC50) is above 6.30 at KRAS G12S; at least 6.30 in the experiment with MiaPaca2 cells; above 6.30 on KRAS WT; above 6.30 at KRAS G12V; above 6.30 on KRAS G12D.
As for `CCN(c1nc(OC[C@@]23CCCN2C[C@H](F)C3)nc2c(F)c(-c3ccc(F)c4sc(N)c(C#N)c34)c(Cl)cc12)[C@@H]1CCN(C(=O)n2ccnc2)[C@@H]1C` [Compound 106, 4-(4-(((2R,3R)-1-(1H-imidazole-1-carbonyl)-2-methylpyrrolidin-3-yl)(ethyl)amino)-6-chloro-8-fluoro-2-(((2R,7aS)-2-fluorotetrahydro-1H-pyrrolizin-7a(5H)-yl)methoxy)quinazolin-7-yl)-2-amino-7-fluorobenzo[b]thiophene-3-carbonitrile], the pIC50 at KRAS G12S is above 6.30; with MiaPaca2 cells, at least 6.30; at KRAS WT it was above 6.30; on KRAS G12V it was above 6.30; at KRAS G12D, above 6.30.
